Test results taken from article PMC2748101, “Transcriptome analysis of the responses of Staphylococcus aureus to antimicrobial peptides and characterization of the roles of vraDE and vraSR in antimicrobial resistance” (BMC Genomics, 2009).
Several values for one entry are separate records, joined by “and”; a condition that tells them apart may be missing. Equal values may be shown once. Where no end group is shown, it is not given here.

Assays:
[1] = tested on: S. aureus Newman; assay type: cell-based, Staphylococcus aureus
[2] = tested on: S. aureus Newman; conditions: S. aureus Newman; Mueller-Hinton broth, 16-24 h, 37°C, two-fold dilution series, performed twice
[3] = tested on: S. aureus RN4220; conditions: Mueller-Hinton broth, 16-24 h, 37°C, two-fold dilution series, performed twice
[4] = tested on: ΔvraSR/S. aureus Newman; conditions: for MIC: ΔvraSR/S. aureus Newman, 16-24 h, 37°C, two-fold dilution series, performed twice; for Effect of the ΔvraSR mutation on sensitivity: MIC, 100%, 50% (LL-37, nisin, Pep5) or 25% (hBD3) Mueller-Hinton broth
[5] = tested on: ΔvraDE/ RN4220; conditions: Mueller-Hinton broth, 16-24 h, 37°C, two-fold dilution series, performed twice
[6] = tested on: ΔvraSR/ RN4220; conditions: Mueller-Hinton broth, 16-24 h, 37°C, two-fold dilution series, performed twice
[7] = tested on: ΔvraDE/S. aureus Newman; conditions: ΔvraDE/S. aureus Newman; Mueller-Hinton broth, 16-24 h, 37°C, two-fold dilution series, performed twice
[8] = tested on: S. aureus Newman; experiment: qRT-PCR of gene induction in treated wild-type cells; assay type: cell-based, Staphylococcus aureus; conditions: 10 min, 5 × MIC (temporin-L-NH2 subinhibitory 2 μg/ml, pentaglycine 20 μg/ml), treated/untreated, mean of three experiments (SD)

Substance: ALWKTLLKKVLKAAAK-NH2 [Dermaseptin K4-S4(1-16)-NH2]
- Number of genes with decreased expression [1]: 134 genes
- Fold induction SA0336 ([1]; n=3): 2.2, 2.1, 2.1 fold
- Fold induction SA0342 ([1]; n=3): 2.2, 2.2 fold
- Fold induction SA0358 ([1]; n=3): 2.4, 2.4 fold
- Fold induction SA0428 ([1]; n=3): 2.3 fold and 3.6, 2.4, 2.3 fold
- Fold induction SA0526 ([1]; n=3): 2.2, 2.0 fold
- Fold induction SA0591 ([1]; n=3): 2.1 fold and 3.0, 3.3, 2.1 fold
- Fold induction SA0825 (spsA) ([1]; n=3): 2.0 fold and 2.6, 3.5, 2.0 fold
- Fold induction SA0826 (spsB) ([1]; n=3): 2.1, 2.7, 2.0 fold
- Fold induction SA0903 ([1]; n=3): 2.6 fold and 2.1, 4.1, 2.6 fold
- Fold induction SA0914 ([1]; n=3): 2.3, 2.5, 2.0 fold
- Fold induction SA0962 ([1]; n=3): 2.4, 2.8, 2.4 fold
- Fold induction SA1184 (citB) ([1]; n=3): 2.5, 2.4, 2.0 fold
- Fold induction SA1217 ([1]; n=3): 3.0, 2.4 fold
- Fold induction SA1218 (pstB) ([1]; n=3): 2.9 fold
- Fold induction SA1219 ([1]; n=3): 4.2 fold and 5.4, 4.2 fold
- Fold induction SA1220 ([1]; n=3): 2.3, 2.1 fold
- Fold induction SA1221 ([1]; n=3): 3.1, 2.8 fold
- Fold induction SA1235 ([1]; n=3): 2.4, 2.1, 2.6 fold
- Fold induction SA1476 ([1]; n=3): 3.3 fold and 4.2, 5.3, 3.3 fold
- Fold induction SA1477 ([1]; n=3): 5.5, 6.8, 3.8 fold
- Fold induction SA1517 (citC) ([1]; n=3): 3.1 fold and 4.9, 5.8, 3.1 fold
- Fold induction SA1518 (citZ) ([1]; n=3): 6.0, 6.7, 3.6 fold
- Fold induction SA1549 (htrA) ([1]; n=3): 2.0 fold and 2.9, 3.0, 2.0 fold
- Fold induction SA1659 (prsA) ([1]; n=3): 2.9 fold and 3.2, 4.5, 2.9 fold
- Fold induction SA1700 (vraR) ([1]; n=3): 3.2, 5.0, 2.8 fold
- Fold induction SA1701 (vraS) ([1]; n=3): 2.5 fold and 3.9, 5.3, 2.5 fold
- Fold induction SA1702 ([1]; n=3): 4.3, 5.7, 2.6 fold
- Fold induction SA1703 ([1]; n=3): 3.7, 4.2, 2.1 fold
- Fold induction SA1706 ([1]; n=3): 2.0, 2.0, 2.1 fold
- Fold induction SA1710 ([1]; n=3): 2.2, 2.4, 2.1 fold
- Fold induction SA1820 ([1]; n=3): 2.2 fold and 3.6, 3.0, 2.2 fold
- Fold induction SA1836 (groEL) ([1]; n=3): 2.2 fold and 3.8, 4.3, 2.2 fold
- Fold induction SA1837 (groES) ([1]; n=3): 3.2, 3.6, 2.4 fold
- Fold induction SA1858 (ilvD) ([1]; n=3): 4.9, 2.5, 2.1 fold
- Fold induction SA1860 ([1]; n=3): 15.7, 4.3, 2.1 fold
- Fold induction SA1863 (leuB) ([1]; n=3): 9.7, 4.2, 2.2 fold
- Fold induction SA1971 ([1]; n=3): 2.2, 2.5, 2.2 fold
- Fold induction SA1990 ([1]; n=3): 2.2 fold and 3.4, 2.6, 2.2 fold
- Fold induction SA2113 ([1]; n=3): 2.2 fold and 2.2, 3.7, 2.2 fold
- Fold induction SA2301 ([1]; n=3): 2.3, 2.2, 2.1 fold
- Fold induction SA2343 ([1]; n=3): 2.7 fold and 4.3, 4.3, 2.7 fold
- Fold induction SA2481 ([1]; n=3): 2.1, 3.1, 2.7 fold
- Fold induction SA2493 (vraE) ([1]; n=3): 3.4, 11.8, 6.2 fold
- Fold induction SAS016 ([1]; n=3): 5.4 fold and 5.0, 7.4, 5.4 fold

Substance: FVQWFSKFLGRIL-NH2 [Temporin L-NH2]
- MIC [2]: 6 µg/mL
- MIC [3]: 3 µg/mL
- MIC ([4]; Mueller-Hinton broth): 6 µg/mL
- MIC [5]: 3 µg/mL
- MIC [6]: 3 µg/mL
- MIC [7]: 6 µg/mL

Substance: KNLRRIIRKIIHIIKKYG-NH2 [Ovispirin-1-NH2]
- MIC [2]: 20 µg/mL
- MIC [3]: 20 µg/mL
- MIC ([4]; Mueller-Hinton broth): 10 µg/mL
- MIC [5]: 20 µg/mL
- MIC [6]: 10 µg/mL
- MIC [7]: 20 µg/mL

Substance: KNLRRIIRKIIHIIKKYG-OH [Ovispirin-1]
- MIC [2]: 20 µg/mL
- MIC [3]: 20 µg/mL
- Effect of the ΔvraSR mutation on sensitivity [4]: did not affect the sensitivity
- MIC ([4]; Mueller-Hinton broth): 20 µg/mL
- Fold induction SA0205 [8]: 5.1 (1.0) fold
- Fold induction groEL [8]: 2.5 (0.5) fold
- Fold induction prsA [8]: 7.2 (1.6) fold
- Fold induction vraD [8]: 3.7 (0.5) fold
- MIC [5]: 20 µg/mL
- MIC [6]: 20 µg/mL
- MIC [7]: 20 µg/mL

Substance: LL-37: human cathelicidin (LLGDFFRKSKEKIGKEFKRIVQRIKDFLRNLVPRTES; Antibacterial peptide LL-37; UniProt P49913 134-170, looked up)
- Effect of the ΔvraSR mutation on sensitivity [4]: did not affect the sensitivity

Substance: Nisin: lantibiotic (ITSISLCTPGCKTGALMGCNMKTATCHCSIHVSK; also: lantibiotic, modified residues and thioether rings not given here; UniProt P13068 24-57, looked up)
- MIC [2]: 6.25 µg/mL
- MIC [3]: 6.25 µg/mL
- Effect of the ΔvraSR mutation on sensitivity [4]: did not affect the sensitivity

Substance: Teicoplanin
- MIC [2]: 0.5 µg/mL
- MIC [3]: 0.25 µg/mL
- Difference in MIC (increased sensitivity), ΔvraSR mutant versus wild-type ([4]; Mueller-Hinton broth): 4 fold
- MIC ([4]; Mueller-Hinton broth): 0.125 µg/mL
- Fold induction SA0205 [8]: 35.7 (6.9) fold
- Fold induction groEL [8]: 3.0 (0.3) fold
- Fold induction prsA [8]: 32.1 (4.1) fold
- Fold induction vraD [8]: 2.5 (0.3) fold
- MIC [6]: 0.06 µg/mL
- MIC [7]: 0.5 µg/mL

Substance: hBD3 (GIINTLQKYYCRVRGGRCAVLSCLPKEEQIGKCSTRGRKCCRRKK; UniProt P81534 23-67, looked up)
- Effect of the ΔvraSR mutation on sensitivity [4]: did not affect the sensitivity
